Measured values published in ChEMBL document CHEMBL1201862, “PubChem BioAssay data set” (2004).
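These data come from cells grown in 96-well plates and exposed to compound for 48 hours at five concentrations. GI50 marks 50% less growth.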 Active and inactive are the calls of the source. No stated cut-off is given here; in the data, active = GI50 up to about 1.1 µM and inactive = higher.

Tests used:
Assay in all cases: inhibition of tumour cell growth, NCI panel, 48 h
[1] = tested on: MDA-MB-231
[2] = tested on: HT-29
[3] = tested on: SF-295
[4] = tested on: CAKI-1
[5] = tested on: MCF7
[6] = tested on: OVCAR-3
[7] = tested on: Malme-3M
[8] = tested on: A549
[9] = tested on: SF-268
[10] = tested on: MDA-MB-435
[11] = tested on: Hs-578T
[12] = tested on: TK-10
[13] = tested on: DU-145
[14] = tested on: SK-MEL-28
[15] = tested on: SR
[16] = tested on: HCC 2998
[17] = tested on: COLO 205
[18] = tested on: RXF 393
[19] = tested on: NCI-H522
[20] = tested on: HCT-116

Measured: GI50

COC(=O)c1sc2c(Cl)c(Cl)sc2c1Cl
inactive: [1] > 100 µM | [2] > 100 µM | [3] 77.4 µM | [4] > 100 µM | [5] 50.5 µM | [6] 93.8 µM | [7] > 100 µM | [8] > 100 µM | [9] > 100 µM | [10] > 100 µM | [11] > 100 µM | [12] 24.2 µM | [13] > 100 µM | [14] > 100 µM | [15] > 100 µM | [16] > 100 µM | [17] > 100 µM | [18] > 100 µM | [19] > 100 µM | [20] > 100 µM

CCOC(=O)CC1c2ccc(O)cc2OC(=O)C1c1ccc([N+](=O)[O-])cc1 (stereo not given)
inactive: [1] 18.5 µM | [2] 35.2 µM | [3] 38.4 µM | [4] 43 µM | [5] 14.8 µM | [6] 28.8 µM | [7] 27.4 µM | [8] 27.5 µM | [9] 40 µM | [10] 25 µM | [11] 46.7 µM | [12] 30.3 µM | [13] 48.9 µM | [14] 38 µM | [15] 31.8 µM | [16] 20.3 µM | [17] 15.7 µM | [18] 16.9 µM | [19] 18.6 µM | [20] 22.5 µM

O=C1NC(O)c2ccccc2O1 (stereo not given)
inactive: [1] > 100 µM | [2] > 100 µM | [3] > 100 µM | [4] > 100 µM | [5] > 100 µM | [6] > 100 µM | [7] > 100 µM | [8] > 100 µM | [9] > 100 µM | [10] > 100 µM | [11] > 100 µM | [12] > 100 µM | [13] > 100 µM | [14] > 100 µM | [15] > 100 µM | [16] > 100 µM | [17] > 100 µM | [18] > 100 µM | [19] > 100 µM | [20] > 100 µM

COC(=O)c1ccc(NCC2=CC(=O)c3ccccc3C2=O)cc1
inactive: [1] 2.99 µM | [2] 25.7 µM | [3] 16.9 µM | [4] 11.6 µM | [5] 18.4 µM | [6] 12.9 µM | [7] 5.81 µM | [8] 22.5 µM | [9] 24.8 µM | [10] 12.2 µM | [11] 28.6 µM | [12] 22.2 µM | [13] 16.5 µM | [14] 17.5 µM | [15] 14.6 µM | [16] 19.4 µM | [17] 13.3 µM | [18] 22 µM | [19] 13.2 µM | [20] 17.8 µM

COc1cc2c3cc1Oc1c(O)c(OC)cc4c1[C@H](Cc1ccc(cc1)Oc1cc(ccc1O)C[C@H]3N(C)CC2)N(C)CC4
inactive: [1] 10.3 µM | [2] 3.84 µM | [3] 12.4 µM | [4] 25.9 µM | [5] 13.3 µM | [6] 10.2 µM | [7] 17.3 µM | [8] 15.2 µM | [9] 14.4 µM | [10] 10.7 µM | [11] 20 µM | [12] 13.6 µM | [13] 15.1 µM | [14] 19.2 µM | [15] 1.63 µM | [16] 7.05 µM | [17] 13.8 µM | [18] 3.63 µM | [19] 11 µM | [20] 5.77 µM
